The source of these data is US9815864B2, “Substituted nucleosides, nucleotides and analogs thereof” (Alios BioPharma, Inc., priority 2013, dated 2017).

Molecules are shown by their SMILES. Like-named read-outs stand apart in the source and are kept apart here.

By EC50 is commonly meant the concentration needed to bring the measured effect to its halfway point.

Test [1] has as its system Murine norovirus (MNV-1). Briefly: Norovirus MNV-1 antiviral assay (CPE reduction, CellTiter-Glo, RAW 264.7 cells). Format: cell-based.
In test [2] the test system is NV genome in HG23 cells. As to the kind of experiment: Norovirus replicon assay (HG23 cells, NV genome by qRT-PCR). Format: cell-based, genogroup 1 norovirus. The settings on record: Norovirus.
[3] abbreviates: RAW264.7, 72 h, RAW 264.7 cells infected with MNV-1 (MOI of 0.001), 3 days, read-out: EC50.
The mark [4] stands for this setting: HG23 cells, reduction of NV genome vs mock-medium at 48 h, read-out: EC50.

As for `C#C[C@]1(O)[C@H](n2ccc(=O)[nH]c2=O)O[C@](F)(COP(=O)(N[C@@H](C)C(=O)OC2CCCCC2)Oc2ccccc2)[C@H]1O` (stereo partly shown) [Compound 131a], the 50% effective concentration (EC50) in test [1] (MNV-1, RAW264.7, 72 h) was 10 to 100 µM; in test [2] (HG23, 48 h), below 1 µM.
As for `CCOc1nc(N)nc2c1ncn2[C@@H]1O[C@](F)(COP(=O)(OCOC(=O)OC(C)C)OCOC(=O)OC(C)C)[C@@H](O)[C@@]1(C)O` [Compound 209a], the concentration for a half-maximal effect (EC50) in test [1] (setting [3]) is 1 to 10 µM; in test [2] (setting [4]) it was below 1 µM.
The like results for `CCOc1nc(N)nc2c1ncn2[C@@H]1O[C@]2(F)CO[P@](=O)(OC(C)C)O[C@H]2[C@@]1(C)O` [Compound 144a] were, in that order, 10 to 100 µM and 1 to 10 µM.
For `CC(C)OC(=O)OCOP(=O)(OCOC(=O)OC(C)C)OC[C@@]1(CF)O[C@@H](n2ccc(=O)[nH]c2=O)[C@](C)(O)[C@@H]1O` [Compound 156a], in that order: 1 to 10 µM and below 1 µM.
`CCOc1nc(N)nc2c1ncn2[C@@H]1O[C@](F)(CO[P@](=O)(N[C@@H](C)C(=O)OC2CCCCC2)Oc2ccccc2)[C@@H](O)[C@@]1(C)F` [Compound 140a]: the 50% effective concentration (EC50) is 1 to 10 µM in test [1] (MNV-1, RAW264.7, 72 h) and below 1 µM in test [2] (HG23, 48 h).
For `CCOc1nc(N)nc2c1ncn2[C@@H]1O[C@](F)(COP(=O)(OCOC(=O)OC(C)C)OCOC(=O)OC(C)C)[C@@H](O)[C@@]1(C)F` [Compound 188a], the EC50 in test [1] (setting [3]) was 1 to 10 µM; in test [2] (setting [4]), below 1 µM.
For the compound `C#C[C@@]1(O)[C@H](O)[C@@](CF)(COP(=O)(OCOC(=O)OC(C)C)OCOC(=O)OC(C)C)O[C@H]1n1cnc2c(N)ncnc21` [Compound 168a], the half-maximal effective concentration (EC50) in test [1] (setting [3]) is 10 to 100 µM; in test [2] (setting [4]) it was below 1 µM.
Consider `Nc1ccn([C@@H]2O[C@@](CO)(CF)[C@@H](O)C2(F)F)c(=O)n1` [Compound 179a], for which the 50% effective concentration (EC50) was below 1 µM in test [1] (setting [3]) and 1 to 10 µM in test [2] (setting [4]).
